Test results published in patent US9040673B2, “Synthesis and identification of novel RSK-specific inhibitors” (University of Virginia Patent Foundation, priority 2009, dated 2015).

Test system: HUVEC cells
Experiment: VEGF-induced capillary network formation in HUVEC cells
Type: cell-based, human
Details: 60 μM, 10 ng/ml VEGF, 20 hours
Experimental: Interfering with tube formation is a characteristic common to anti-angiogenic treatments. HUVEC cells were seeded at a density of 1×10^5 cells per well in 24-well culture dishes coated in growth factor-reduced Matrigel (BD Biosciences). […] The cells were incubated at 37° C. for 20 hours. Images of the cells were captured for analysis of the capillary-like network.

CC(=O)O[C@@H]1[C@@H](OC(C)=O)[C@@H](O)[C@H](Oc2c(-c3ccc(O)cc3)oc3cc(O)cc(O)c3c2=O)O[C@H]1C [SL0101, kaempferol 3-O-(3″,4″-di-O-acetyl-α-L-rhamnopyranoside)]
capillary-like network formation: indistinguishable from those treated with SU1498
